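The compound was tested at five concentrations on cells cultured in 96-well plates, with a 48-hour exposure period. GI50 is the concentration that inhibits growth by half.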 Calls of active or inactive are those of the source. Rule as the data show it: active = GI50 up to about 1.1 µM and inactive = higher.
How the values were obtained:
Assay in all cases: NCI-60 cell line screen, 48 h
A549 = test system: A549
CCRF-CEM = test system: CCRF-CEM
COLO 205 = test system: COLO 205
HCC 2998 = test system: HCC 2998
HCT-15 = test system: HCT-15
HOP-62 = test system: HOP-62
HOP-92 = test system: HOP-92
KM12 = test system: KM12
NCI-H226 = test system: NCI-H226
NCI-H23 = test system: NCI-H23
NCI-H460 = test system: NCI-H460
OVCAR-5 = test system: OVCAR-5
OVCAR-8 = test system: OVCAR-8
RPMI-8226 = test system: RPMI-8226
SF-539 = test system: SF-539
SK-MEL-5 = test system: SK-MEL-5
SN12C = test system: SN12C
SNB-19 = test system: SNB-19
UO-31 = test system: UO-31
MCF7 = test system: MCF7

SMILES	GI50 (A549)	GI50 (CCRF-CEM)	GI50 (COLO 205)	GI50 (HCC 2998)	GI50 (HCT-15) [µM]	GI50 (HOP-62)	GI50 (HOP-92)	GI50 (KM12)	GI50 (NCI-H226)	GI50 (NCI-H23)	GI50 (NCI-H460)	GI50 (OVCAR-5)	GI50 (OVCAR-8)	GI50 (RPMI-8226)	GI50 (SF-539)	GI50 (SK-MEL-5)	GI50 (SN12C)	GI50 (SNB-19)	GI50 (UO-31)	GI50 (MCF7)
OC(c1ccccc1)(c1ccccc1)c1ccncc1	> 100 µM (inactive)	> 100 µM (inactive)	> 100 µM (inactive)	> 100 µM (inactive)	> 100	> 100 µM (inactive)	74 µM (inactive)	> 100 µM (inactive)	> 100 µM (inactive)	> 100 µM (inactive)	> 100 µM (inactive)	> 100 µM (inactive)	> 100 µM (inactive)	> 100 µM (inactive)	59.4 µM (inactive)	> 100 µM (inactive)	> 100 µM (inactive)	> 100 µM (inactive)	> 100 µM (inactive)	–
Cc1cc(N(CCC#N)CCC#N)ccc1C(/N=N/c1ccc([N+](=O)[O-])cc1)=N\NC(=O)c1cc(Cl)ccc1C(=O)c1ccccc1	15 µM (inactive)	2.98 µM (inactive)	16.2 µM (inactive)	13 µM (inactive)	4.8	18.4 µM (inactive)	–	9.1 µM (inactive)	10 µM (inactive)	13.3 µM (inactive)	6.1 µM (inactive)	26.1 µM (inactive)	6.21 µM (inactive)	11 µM (inactive)	–	12 µM (inactive)	19.3 µM (inactive)	46.7 µM (inactive)	10.1 µM (inactive)	4.95 µM (inactive)
O=C1c2ccccc2CC12Cc1ccc3c(c1C2=O)CCCC3 (stereo not given)	8.05 µM (inactive)	49 µM (inactive)	13 µM (inactive)	> 100 µM (inactive)	5.13	7.74 µM (inactive)	–	41.4 µM (inactive)	24 µM (inactive)	–	3.91 µM (inactive)	> 100 µM (inactive)	26 µM (inactive)	18.2 µM (inactive)	4.89 µM (inactive)	6.19 µM (inactive)	14.1 µM (inactive)	20.7 µM (inactive)	9.27 µM (inactive)	> 100 µM (inactive)
Cc1ccc(SC2C(C)(C)N(C(C)C)P2(=O)N(C(C)C)C(C)C)cc1 (stereo not given)	> 45 µM (inactive)	31.8 µM (inactive)	> 43.7 µM (inactive)	64.3 µM (inactive)	62.8	> 100 µM (inactive)	5.58 µM (inactive)	> 100 µM (inactive)	> 100 µM (inactive)	26.7 µM (inactive)	27.5 µM (inactive)	> 100 µM (inactive)	45.5 µM (inactive)	9.35 µM (inactive)	> 88.9 µM (inactive)	22.4 µM (inactive)	38.6 µM (inactive)	51.5 µM (inactive)	46.1 µM (inactive)	–
CC(=O)ON(C(C)=O)C1C(COC(c2ccccc2)(c2ccccc2)c2ccccc2)OC2OC3(CCCC3)OC21 (stereo not given)	4.59 µM (inactive)	4.13 µM (inactive)	> 23.2 µM (inactive)	> 50.4 µM (inactive)	4.6	11.6 µM (inactive)	2.42 µM (inactive)	5.09 µM (inactive)	9.16 µM (inactive)	4.24 µM (inactive)	6.75 µM (inactive)	> 100 µM (inactive)	5.13 µM (inactive)	2.42 µM (inactive)	> 100 µM (inactive)	6.3 µM (inactive)	5.13 µM (inactive)	5.38 µM (inactive)	5.36 µM (inactive)	–
Nc1ncnc2c1ncn2C1CCC(CP(=O)(O)O)C1 (stereo not given)	> 100 µM (inactive)	–	> 100 µM (inactive)	> 100 µM (inactive)	> 100	> 100 µM (inactive)	–	> 100 µM (inactive)	> 100 µM (inactive)	> 100 µM (inactive)	> 100 µM (inactive)	> 100 µM (inactive)	> 100 µM (inactive)	> 100 µM (inactive)	> 100 µM (inactive)	> 100 µM (inactive)	> 100 µM (inactive)	> 100 µM (inactive)	> 100 µM (inactive)	> 100 µM (inactive)
CN(c1c(Cl)cccc1Cl)S(=O)(=O)c1ccccc1[N+](=O)[O-]	> 100 µM (inactive)	–	> 100 µM (inactive)	> 100 µM (inactive)	> 100	> 100 µM (inactive)	–	> 100 µM (inactive)	> 100 µM (inactive)	> 100 µM (inactive)	> 100 µM (inactive)	> 100 µM (inactive)	> 100 µM (inactive)	> 100 µM (inactive)	> 100 µM (inactive)	–	> 100 µM (inactive)	> 100 µM (inactive)	> 100 µM (inactive)	> 100 µM (inactive)
N#Cc1ccc(/C=N\N2C(=O)c3ccccc3C2=O)cc1	> 100 µM (inactive)	> 100 µM (inactive)	–	> 100 µM (inactive)	> 100	> 100 µM (inactive)	> 100 µM (inactive)	> 100 µM (inactive)	> 100 µM (inactive)	> 100 µM (inactive)	> 100 µM (inactive)	> 100 µM (inactive)	> 100 µM (inactive)	> 100 µM (inactive)	> 100 µM (inactive)	> 100 µM (inactive)	> 100 µM (inactive)	> 100 µM (inactive)	> 100 µM (inactive)	–
C/C(=N/N)c1sc(-c2nc(C)c(/C(C)=N\N)s2)nc1C	> 100 µM (inactive)	27.2 µM (inactive)	> 46.1 µM (inactive)	> 100 µM (inactive)	> 43	> 100 µM (inactive)	> 100 µM (inactive)	> 100 µM (inactive)	> 100 µM (inactive)	> 100 µM (inactive)	59.3 µM (inactive)	> 100 µM (inactive)	> 86.1 µM (inactive)	35.7 µM (inactive)	> 100 µM (inactive)	> 100 µM (inactive)	> 100 µM (inactive)	> 100 µM (inactive)	> 100 µM (inactive)	–
O=C1C=C(Nc2ccccc2C(=O)CC(=O)C(=O)Nc2ccc(Cl)cc2)c2ccccc2C1=O	14.4 µM (inactive)	3.59 µM (inactive)	17.9 µM (inactive)	17.5 µM (inactive)	10.6	17.7 µM (inactive)	21.9 µM (inactive)	14.6 µM (inactive)	24.4 µM (inactive)	9.91 µM (inactive)	16.3 µM (inactive)	19.6 µM (inactive)	6.59 µM (inactive)	3.21 µM (inactive)	20.1 µM (inactive)	4.32 µM (inactive)	12.6 µM (inactive)	14 µM (inactive)	14.7 µM (inactive)	–
Cc1cc(C)c(/C=N/NS(=O)(=O)c2ccccc2)c(C)c1	> 100 µM (inactive)	62.8 µM (inactive)	> 100 µM (inactive)	> 100 µM (inactive)	> 100	> 100 µM (inactive)	36.3 µM (inactive)	> 100 µM (inactive)	> 100 µM (inactive)	54.3 µM (inactive)	59.4 µM (inactive)	> 100 µM (inactive)	71.6 µM (inactive)	54.5 µM (inactive)	66.8 µM (inactive)	> 100 µM (inactive)	92.3 µM (inactive)	–	72.1 µM (inactive)	–
O=C1OC(CC(=O)c2ccc(Cl)cc2Cl)C(Cl)=C1Cl (stereo not given)	> 100 µM (inactive)	25.7 µM (inactive)	20.8 µM (inactive)	15.8 µM (inactive)	29.3	> 59.2 µM (inactive)	18.9 µM (inactive)	> 100 µM (inactive)	30 µM (inactive)	28.9 µM (inactive)	> 57.3 µM (inactive)	> 45.1 µM (inactive)	27.2 µM (inactive)	26.9 µM (inactive)	22 µM (inactive)	45.6 µM (inactive)	18.9 µM (inactive)	> 49.2 µM (inactive)	> 42.6 µM (inactive)	–
Cc1n[n+](Cc2ccccc2)c2sc(N)nn12	> 100 µM (inactive)	32 µM (inactive)	> 100 µM (inactive)	–	> 100	> 100 µM (inactive)	–	> 100 µM (inactive)	74 µM (inactive)	> 100 µM (inactive)	> 10 µM (inactive)	> 100 µM (inactive)	> 100 µM (inactive)	> 100 µM (inactive)	> 100 µM (inactive)	39.4 µM (inactive)	> 100 µM (inactive)	> 100 µM (inactive)	> 100 µM (inactive)	> 100 µM (inactive)
Cc1cn(C2CC(N=[N+]=[N-])C(CO[Si](C)(C)C(C)(C)C)O2)c(=O)[nH]c1=O (stereo not given)	27.2 µM (inactive)	24.5 µM (inactive)	17.5 µM (inactive)	12.6 µM (inactive)	18.3	16.4 µM (inactive)	–	15.8 µM (inactive)	14.9 µM (inactive)	21.1 µM (inactive)	–	23 µM (inactive)	19.4 µM (inactive)	17.9 µM (inactive)	18 µM (inactive)	18.5 µM (inactive)	15.6 µM (inactive)	19.8 µM (inactive)	16.6 µM (inactive)	18 µM (inactive)
C1=CC=C2NCCCCCC/N=C3\C=CC=CC=C3NCCc3cccc(c3)CC/N=C/2C=C1	35.2 µM (inactive)	15.9 µM (inactive)	14.3 µM (inactive)	10 µM (inactive)	15.8	10 µM (inactive)	23.7 µM (inactive)	14.7 µM (inactive)	32.5 µM (inactive)	13.1 µM (inactive)	5.42 µM (inactive)	14.4 µM (inactive)	14.8 µM (inactive)	7.45 µM (inactive)	10.8 µM (inactive)	–	29.7 µM (inactive)	26.5 µM (inactive)	16.7 µM (inactive)	–

Source: ChEMBL document CHEMBL1201862, “PubChem BioAssay data set” (2004)
